Assay results taken from patent publication US12275734B1, “Pleuromutilin onium salt derivative containing a 3H-imidazo[4,5-c]pyridine side chain, and a preparation method and application thereof” (SHAANXI UNIVERSITY OF SCIENCE AND TECHNOLOGY, priority 2024, dated 2025).
Values after ≈ are worked out from the molar mass of the structure shown. Read-outs that look alike come from different tables or passages of the source.

Legend:
[1] = system: MRSA (ATCC 33591); test: Cell membrane potential, DiBAC4 (3) probe; conditions: 1×MIC to 8×MIC, vs blank control
[2] = system: Methicillin-resistant S. aureus ATCC 33591; test: MIC, broth microdilution; assay type: cell-based; conditions: Staphylococcus aureus, ATCC 33591 / MRSA, read-out: Minimum inhibitory concentration MRSA^b
Outline: (§1)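 Broth microdilution in Mueller–Hinton broth: compounds two-fold serially diluted from a 2560 μg/mL stock (1% DMSO), inoculum 5×10^5 CFU/mL final from log-phase cultures, incubation 37 °C for 24 h. MIC taken as the lowest concentration inhibiting growth.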

[3] = system: S. aureus ATCC 29213; test: MIC, broth microdilution; assay type: cell-based; conditions: Staphylococcus aureus
Outline: as §1

[4] = system: E. coli ATCC 25922; test: MIC, broth microdilution; assay type: cell-based; conditions: Escherichia coli
Outline: as §1

[5] = system: E.coli CMCC 44103; test: MIC, broth microdilution; assay type: cell-based; conditions: Escherichia coli
Outline: as §1

[6] = system: A. baumannii ATCC 19606; test: MIC, broth microdilution; assay type: cell-based; conditions: Acinetobacter baumannii
Outline: as §1

[7] = system: Methicillin-resistant S. epidermidis ATCC 51625; test: MIC, broth microdilution; assay type: cell-based; conditions: Staphylococcus epidermidis, ATCC 51625 / MRSE, read-out: Minimum inhibitory concentration MRSE^e
Outline: as §1

[8] = system: E. coli (ATCC 25922); test: Biofilm formation, crystal violet staining; assay type: cell-based
Procedure: Quantification of biofilm using crystal violet staining:
MRSA and E. coli cells were first adjusted to the logarithmic growth phase and diluted to […]. […] A blank control group without compound addition was set up. After incubation, the suspension was discarded and washed three times with 10 mM PBS buffer, and the biofilm was fixed with methanol for 15 minutes. After removing the methanol, 200 μL of 0.1% crystal violet was added to each well for staining for 30 minutes, and then the crystal violet was discarded and washed again with PBS three times. After the well plate was dried, 200 μL of 95% ethanol was added to each well to dissolve the fixed dye. […] This process allows for quantitative analysis of the ability of different concentrations of compound i to form biofilms.

[9] = system: MRSA (ATCC 33591); test: Intracellular and extracellular ATP concentration; assay type: cell-based, S. aureus
Procedure: The intracellular and extracellular ATP levels refer to the concentration of ATP inside and outside the cell. Under normal physiological conditions, ATP is mainly produced inside the cell and released outside the cell when needed. This dynamic change is very important for maintaining normal biological homeostasis.
Determine the intracellular ATP concentration using the ATP assay kit:
Secondly, the bacterial suspension was treated with different concentrations of compound i, and a blank control group was set up. Next, the samples were incubated at 37° C. and the cells were lysed by ultrasound to extract ATP. After that, the supernatant was collected by high-speed centrifugation and ATP detection was performed, which involved adding the detection solution and compound to a 96-well plate and using a reader to measure the light intensity. Finally, data analysis and statistics were performed to evaluate the effects of the compound by comparing the ATP levels of different treatment groups.

[10] = system: MRSA (ATCC 33591); test: Time-kill curve; assay type: cell-based, S. aureus; conditions: 1×MIC to 8×MIC, 0-24 hours
Procedure: Based on the MIC test results, the best performing active compounds were selected for time-kill curve studies.
(2) Sampling: At 0, 2, 4, 6, 8, 12, and 24 hours, aspirate 100 μL of the mixture
(3) Serial dilution and coating: Use 10 mM PBS buffer to dilute 10 times continuously, and evenly coat the diluted liquid on the agar plate
(4) Incubation and counting: Incubate in a 37° C. incubator for 24 hours and count the colonies.
(5) Sterilization curve drawing: Draw the curve of colony count change over time at different compound concentrations, and record the results as shown in FIG. 1.

[11] = system: E. coli (ATCC 25922); test: Cell membrane potential, DiBAC4 (3) probe; conditions: 1×MIC to 8×MIC, vs blank control

SMILES: C=C[C@]1(C)C[C@@H](OC(=O)CSc2nc3cc[n+](Cc4ccc(C)cc4)cc3[nH]2)[C@]2(C)[C@H](C)CC[C@]3(CCC(=O)[C@H]32)[C@@H](C)[C@@H]1O [Compound i, 5-(4-methylbenzyl)-2-((2-(((3aR,4R,5R,7S,8S,9R,9aS,12R)-8-hydroxy-4,7,9,12-tetramethyl-3-oxo-7-vinyldecahydro-4,9a-propancyclopenta[8]cyclo-5-yl)oxy)-2-oxoethyl)thio)-3H-imidazo[4,5-C]pyridine-5-ium]
- membrane potential, DiBAC4 (3) fluorescence intensity [1]: significant dose-dependent increase
- MIC ([2]; Methicillin-resistant S. aureus ATCC 33591): 0.125 µg/mL
- MIC ([3]; ATCC29213, S. aureus ATCC 29213, read-out: Minimum inhibitory concentration S.a.^d): 0.0625 µg/mL
- MIC ([4]; ATCC25922, E. coli ATCC 25922, read-out: Minimum inhibitory concentration E.c.^h): 0.125 µg/mL
- MIC ([5]; CMCC44103, E.coli CMCC 44103, read-out: Minimum inhibitory concentration E.c.^i): 0.125 µg/mL
- MIC ([6]; ATCC19606, A. baumannii ATCC 19606, read-out: Minimum inhibitory concentration A.b.^f): 0.25 µg/mL
- MIC ([7]; Methicillin-resistant S. epidermidis ATCC 51625): 0.0625 µg/mL
- inhibition rate of biofilm formation ([8]; 1×MIC): 60.47%
- inhibition rate of biofilm formation ([8]; 8×MIC): 94.54%
- extracellular fluorescence intensity (ATP) increased by ([9]; 1×MIC): 3.27 times
- intracellular fluorescence intensity (ATP) decreased by ([9]; 1×MIC): 51.92%
- extracellular fluorescence intensity (ATP) increased by ([9]; 2×MIC): 2.28 times
- intracellular fluorescence intensity (ATP) decreased by ([9]; 2×MIC): 74.76%
- bactericidal efficiency (time-kill curve) compared with retapamulin [10]: higher bactericidal efficiency
- membrane potential, DiBAC4 (3) fluorescence intensity [11]: dose-dependent increase in fluorescence intensity

SMILES: C=C[C@]1(C)C[C@@H](OC(=O)CS[C@@H]2C[C@H]3CC[C@@H](C2)N3C)[C@]2(C)[C@H](C)CC[C@]3(CCC(=O)[C@H]32)[C@@H](C)[C@@H]1O [Retapamulin, reference compound]
- MIC [2]: 32 µg/mL (≈ 61.8 µM)
- MIC ([3]; ATCC29213, read-out: Minimum inhibitory concentration S.a.^d): 4 µg/mL (≈ 7.73 µM)
- MIC ([4]; ATCC25922, read-out: Minimum inhibitory concentration E.c.^h): 32 µg/mL (≈ 61.8 µM)
- MIC ([5]; CMCC44103, read-out: Minimum inhibitory concentration E.c.^i): 32 µg/mL (≈ 61.8 µM)
- MIC ([6]; ATCC19606, read-out: Minimum inhibitory concentration A.b.^f): 4 µg/mL (≈ 7.73 µM)
- MIC [7]: 32 µg/mL (≈ 61.8 µM)
